{"source": "patent US7632832B2", "about": "“CGRP receptor antagonists” (Merck & Co., Inc., priority 2005, dated 2009)", "origin": "cited, not measured here", "system": "CGRP", "settings": "marmoset, electrical stimulation of the trigeminal ganglion (Doods et al. 2000)"}
{"smiles": "NCCCC[C@H](NC(=O)[C@@H](Cc1cc(Br)c(O)c(Br)c1)NC(=O)N1CCC(N2Cc3ccccc3NC2=O)CC1)C(=O)N1CCN(c2ccncc2)CC1", "note": "[BIBN4096BS]", "values": [{"measurement": "effect on increase in facial blood flow", "value": "blocked"}]}
